Each compound was assayed against T1, human MGL from HeLa cells (Homo sapiens, UniProt Q99685) (assay: In vitro MGL activity assay: [glycerol-1,3-3H]-oleyl glycerol cleavage by MGL from HeLa cells). Conditions: 300 nM [Glycerol-1,3-3H]-oleyl glycerol, one hour.
T1 construct: combining endogenously expressed MGL from HeLa cells with test compounds; endogenous in cells; host or cells: HeLa cells / cell homogenates
T1 sequence (Q99685 1-303): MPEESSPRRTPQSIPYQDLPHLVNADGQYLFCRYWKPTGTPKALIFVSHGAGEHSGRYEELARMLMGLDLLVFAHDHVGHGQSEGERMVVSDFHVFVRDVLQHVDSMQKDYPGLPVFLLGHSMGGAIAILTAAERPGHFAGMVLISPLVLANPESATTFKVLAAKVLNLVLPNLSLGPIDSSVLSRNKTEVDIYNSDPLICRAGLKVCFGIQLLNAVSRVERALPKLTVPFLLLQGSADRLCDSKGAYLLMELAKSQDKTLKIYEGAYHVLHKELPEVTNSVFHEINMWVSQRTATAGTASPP
Format: biochemical
Description: MGL is the predominant hydrolase in HeLa cells/cell homogenates.
`C[C@H]1c2nn(C)c(-c3cc(F)c(F)c(F)c3)c2CCN1C(=O)c1cccn2ncc(Br)c12` [Example 379, (3-Bromopyrazolo[1,5-a]pyridin-4-yl)-[(7S)-2,7-dimethyl-3-(3,4,5-trifluorophenyl)-5,7-dihydro-4H-pyrazolo[3,4-c]pyridin-6-yl]methanone] gave an IC50 of 45.5 nM. With `C[C@H]1c2nn(C)c(-c3cc(F)c(F)c(F)c3)c2CCN1C(=O)c1cnn2cc(F)ccc12` [Example 384, [(7S)-2,7-Dimethyl-3-(3,4,5-trifluorophenyl)-5,7-dihydro-4H-pyrazolo[3,4-c]pyridin-6-yl]-(6-fluoropyrazolo[1,5-a]pyridin-3-yl)methanone] the IC50 was 44 nM. `C[C@H]1c2nn(C)c(-c3cccc4c3OCO4)c2CCN1C(=O)c1ccc2ncccc2c1` [Example 541, [(7S)-3-(1,3-Benzodioxol-4-yl)-2,7-dimethyl-5,7-dihydro-4H-pyrazolo[3,4-c]pyridin-6-yl]-(6-quinolyl)methanone] gave an IC50 of 2.17 nM. In the case of `C[C@H]1c2nn(C)c(-c3cc(F)c(F)c(F)c3)c2CCN1C(=O)c1cnn(C)c1C1CC1(F)F` (single isomer, unassigned) [Example 338, (5-((S*)-2,2-Difluorocyclopropyl)-1-methyl-1H-pyrazol-4-yl)((S)-2,7-dimethyl-3-(3,4,5-trifluorophenyl)-2,4,5,7-tetrahydro-6H-pyrazolo[3,4-c]pyridin-6-yl)methanone], the IC50 is reported as 14.2 nM. In the case of `C[C@H]1c2nn(C)c(-c3cc(F)c(F)c(F)c3)c2CCN1C(=O)c1ccc2c(c1)COCC2` [Example 577, [(7S)-2,7-Dimethyl-3-(3,4,5-trifluorophenyl)-5,7-dihydro-4H-pyrazolo[3,4-c]pyridin-6-yl]-isochroman-7-yl-methanone], the IC50 is reported as 32.2 nM. `C[C@H]1c2nn(C)c(-c3cc(F)c(F)c(F)c3)c2CCN1C(=O)c1ncn2ccccc12` [Example 420, [(7S)-2,7-Dimethyl-3-(3,4,5-trifluorophenyl)-5,7-dihydro-4H-pyrazolo[3,4-c]pyridin-6-yl]-imidazo[1,5-a]pyridin-1-yl-methanone] was tested, and the IC50 was 59.1 nM. Work on `C[C@H]1c2nn(C)c(-c3cc(F)c(F)c(F)c3)c2CCN1C(=O)c1nccc2cn(C)nc12` [Example 429, [(7S)-2,7-Dimethyl-3-(3,4,5-trifluorophenyl)-5,7-dihydro-4H-pyrazolo[3,4-c]pyridin-6-yl]-(2-methylpyrazolo[3,4-c]pyridin-7-yl)methanone] yielded an IC50 of 412 nM. Compound `C[C@H]1c2nn(C)c(-c3cc(F)c(F)c(F)c3)c2CCN1C(=O)c1cncc2ncccc12` [Example 489] has an IC50 of 30 nM. `C[C@H]1c2nn(C)c(-c3cc(F)c(F)c(F)c3)c2CCN1C(=O)c1n[nH]c2ncccc12` [Example 426, [(7S)-2,7-Dimethyl-3-(3,4,5-trifluorophenyl)-5,7-dihydro-4H-pyrazolo[3,4-c]pyridin-6-yl]-(1H-pyrazolo[3,4-b]pyridin-3-yl)methanone] showed an IC50 of 14.5 nM.

Same assay, conditions: 300 nM [Glycerol-1,3-3H]-oleyl glycerol, one hour incubation
For `Cn1nc2c(c1-c1ccccc1)CCN(C(=O)c1ccc3scnc3c1)C2` [Example 60, Benzo[d]thiazol-5-yl(2-methyl-3-phenyl-2,4,5,7-tetrahydro-6H-pyrazolo[3,4-c]pyridin-6-yl)methanone], the IC50 was 550 nM. Work on `C[C@H]1c2nn(C)c(-c3cc(F)c(F)c(F)c3)c2CCN1C(=O)c1ccc(-n2ccnc2)cc1` [Example 267, [(7S)-2,7-Dimethyl-3-(3,4,5-trifluorophenyl)-5,7-dihydro-4H-pyrazolo[3,4-c]pyridin-6-yl]-(4-imidazol-1-ylphenyl)methanone] yielded an IC50 of 576 nM. `CCc1nc(C(=O)N2CCc3c(nn(C)c3-c3cccc(Cl)c3)[C@@H]2C)nn1-c1ccccc1F` [Example 118, (S)-(3-(3-Chlorophenyl)-2,7-dimethyl-2,4,5,7-tetrahydro-6H-pyrazolo[3,4-c]pyridin-6-yl)(5-ethyl-1-(2-fluorophenyl)-1H-1,2,4-triazol-3-yl)methanone] showed an IC50 of 13.8 nM. `Cn1nc2c(c1-c1ccccc1)CCN(C(=O)c1cccc3cn[nH]c13)C2` [Example 67, (1H-Indazol-7-yl)(2-methyl-3-phenyl-2,4,5,7-tetrahydro-6H-pyrazolo[3,4-c]pyridin-6-yl)methanone] showed an IC50 of 1630 nM.
